As a reminder, the IC50 is the concentration at which inhibition is half-maximal.

The target in this assay is Tyrosine-protein kinase BTK (Homo sapiens, UniProt Q06187). Description: Inhibition of BTK (unknown origin) using fluorescently labeled peptide as substrate after 3 hrs by microfluidic mobility shift assay.
Chain of Tyrosine-protein kinase BTK (Q06187 whole entry): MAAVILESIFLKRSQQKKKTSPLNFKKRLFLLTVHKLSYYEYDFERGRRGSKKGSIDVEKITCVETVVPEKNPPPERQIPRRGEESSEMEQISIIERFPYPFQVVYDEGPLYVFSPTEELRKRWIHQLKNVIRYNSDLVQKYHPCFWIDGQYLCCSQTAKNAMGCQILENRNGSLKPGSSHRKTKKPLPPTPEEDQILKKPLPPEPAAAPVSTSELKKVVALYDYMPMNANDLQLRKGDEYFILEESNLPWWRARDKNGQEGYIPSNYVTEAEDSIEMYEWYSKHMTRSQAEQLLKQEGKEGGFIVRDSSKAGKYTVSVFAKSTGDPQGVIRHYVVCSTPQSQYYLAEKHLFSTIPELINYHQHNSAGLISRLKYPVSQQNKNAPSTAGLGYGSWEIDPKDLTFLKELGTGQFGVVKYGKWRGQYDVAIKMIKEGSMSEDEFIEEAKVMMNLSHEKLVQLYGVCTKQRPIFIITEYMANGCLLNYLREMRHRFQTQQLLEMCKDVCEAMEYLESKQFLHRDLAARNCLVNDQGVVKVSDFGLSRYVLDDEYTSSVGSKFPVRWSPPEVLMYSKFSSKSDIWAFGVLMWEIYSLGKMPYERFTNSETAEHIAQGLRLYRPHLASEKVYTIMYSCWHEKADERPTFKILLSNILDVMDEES
Regarding `C=CC(=O)N1CC[C@]2(C1)C[C@H](n1c(NC(=O)c3ccc(-c4ccnc(N)c4)s3)nc3ccccc31)C2`, the IC50 is 0.63 nM. Turning to `C=CC(=O)N1CC[C@]2(C1)C[C@H](n1c(NC(=O)c3ccc(-c4cnco4)s3)nc3cc(NC)ccc31)C2`, the IC50 amounted to 0.62 nM.

Turning to `C=CC(=O)N1CC[C@]2(C1)C[C@H](n1c(NC(=O)c3ccc(C(F)F)s3)nc3cc(CN[C@@H](C)C(C)(C)C)ccc31)C2`, the IC50 amounted to 4.4 nM.
